Data taken from PubChem BioAssay AID248 (DTP/NCI, 2004).
Inconclusive results and toxic doses are left out. Cut-off read from the data, not from the text of the source: active = T/C of 150% or more; inactive = T/C below 125%.

Test system: L1210 leukemia ip in BDF1 mice, survival T/C
Assay: NCI In Vivo Anticancer Drug Screen. Data for tumor model L1210 Leukemia (intraperitoneal) in B6D2F1 (BDF1) mice
Conditions: higher = longer survival
In short: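 Ratio derived from survival: compound-dosed mice over vehicle-dosed mice, all bearing a transplantable tumor.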

[1] = endpoint: mean survival time, dose: 100.0 mg/kg/injection, schedule: Q04DX003 (ip), vehicle: Klucel (hydroxypropylcellulose) (HPC)
[2] = endpoint: mean survival time, dose: 200.0 mg/kg/injection, schedule: Q04DX003 (ip), vehicle: Klucel (hydroxypropylcellulose) (HPC)
[3] = endpoint: mean survival time, dose: 400.0 mg/kg/injection, schedule: Q04DX003 (ip), vehicle: Klucel (hydroxypropylcellulose) (HPC)
[4] = endpoint: mean survival time, dose: 25.0 mg/kg/injection, schedule: Q01DX009 (ip), vehicle: saline

Measured: T/C

CCCCN(C)N=Nc1ccc(CCC(=O)OCC)cc1
inactive: endpoint: mean survival time, dose: 72.5 mg/kg/injection, schedule: Q01DX009 (ip), vehicle: saline with Tween-80 121 % of control | endpoint: mean survival time, dose: 177.0 mg/kg/injection, schedule: Q01DX009 (ip), vehicle: other 117 % of control | endpoint: mean survival time, dose: 187.0 mg/kg/injection, schedule: Q01DX Z (ip), vehicle: saline 117 % of control | endpoint: mean survival time, dose: 207.0 mg/kg/injection, schedule: Q01DX001 (ip), vehicle: saline with Tween-80 111 % of control | endpoint: mean survival time, dose: 414.5 mg/kg/injection, schedule: Q01DX001 (ip), vehicle: saline with Tween-80 119 % of control | endpoint: median survival time, dose: 200.0 mg/kg/injection, schedule: Q04DX003 (ip), vehicle: Klucel (hydroxypropylcellulose) (HPC) 111 % of control
active: endpoint: mean survival time, dose: 266.0 mg/kg/injection, schedule: Q01DX007 (ip), vehicle: saline 160 % of control | endpoint: mean survival time, dose: 290.0 mg/kg/injection, schedule: Q01DX009 (ip), vehicle: saline with Tween-80 171 % of control | endpoint: mean survival time, dose: 400.0 mg/kg/injection, schedule: Q01DX007 (ip), vehicle: saline 171 % of control | endpoint: mean survival time, dose: 400.0 mg/kg/injection, schedule: Q01DX009 (ip), vehicle: other 162 % of control | endpoint: mean survival time, dose: 600.0 mg/kg/injection, schedule: Q01DX009 (ip), vehicle: other 179 % of control | endpoint: median survival time, dose: 800.0 mg/kg/injection, schedule: Q01DX009 (ip), vehicle: saline 187 % of control

CCOC(=O)C(N)C(C)(C)S (stereo unspecified)
inactive: endpoint: mean survival time, dose: 100.0 mg/kg/injection, schedule: Q01DX009 (ip), vehicle: saline 94 % of control | endpoint: mean survival time, dose: 100.0 mg/kg/injection, schedule: Q04DX003 (ip), vehicle: saline 96 % of control | endpoint: mean survival time, dose: 200.0 mg/kg/injection, schedule: Q01DX009 (ip), vehicle: saline 103 % of control | endpoint: mean survival time, dose: 200.0 mg/kg/injection, schedule: Q04DX003 (ip), vehicle: saline 102 % of control | endpoint: mean survival time, dose: 400.0 mg/kg/injection, schedule: Q01DX009 (ip), vehicle: saline 100 % of control | endpoint: mean survival time, dose: 400.0 mg/kg/injection, schedule: Q04DX003 (ip), vehicle: saline 103 % of control

CC(CCl)NC(=O)Nc1cccc2c1CCCC2 (stereo unspecified)
inactive: endpoint: mean survival time, dose: 100.0 mg/kg/injection, schedule: Q01DX009 (ip), vehicle: Klucel (hydroxypropylcellulose) (HPC) 102 % of control | [1] 106 % of control | endpoint: mean survival time, dose: 200.0 mg/kg/injection, schedule: Q01DX009 (ip), vehicle: Klucel (hydroxypropylcellulose) (HPC) 103 % of control | [2] 106 % of control | endpoint: mean survival time, dose: 400.0 mg/kg/injection, schedule: Q01DX009 (ip), vehicle: Klucel (hydroxypropylcellulose) (HPC) 97 % of control | [3] 103 % of control

O=[N+]([O-])c1ccc(CS(=O)(=O)Cc2ccc([N+](=O)[O-])cc2)cc1
inactive: endpoint: mean survival time, dose: 150.0 mg/kg/injection, schedule: Q01DX001 (ip), vehicle: carboxymethylcellulose (CMC) 93 % of control | endpoint: mean survival time, dose: 300.0 mg/kg/injection, schedule: Q01DX001 (ip), vehicle: carboxymethylcellulose (CMC) 89 % of control

CC(=O)C(C(C)=O)c1ccccc1.CC(=O)C(C(C)=O)c1ccccc1.[Ni]
inactive: endpoint: mean survival time, dose: 6.0 mg/kg/injection, schedule: Q01DX009 (ip), vehicle: saline 94 % of control | endpoint: mean survival time, dose: 12.0 mg/kg/injection, schedule: Q01DX009 (ip), vehicle: saline 94 % of control | [4] 102 % of control

CCn1nnc2c(=O)[nH]c(N)nc21
inactive: endpoint: mean survival time, dose: 100.0 mg/kg/injection, schedule: Q04DX003 (ip), vehicle: saline with Tween-80 105 % of control | endpoint: mean survival time, dose: 200.0 mg/kg/injection, schedule: Q04DX003 (ip), vehicle: saline with Tween-80 104 % of control | endpoint: mean survival time, dose: 400.0 mg/kg/injection, schedule: Q04DX003 (ip), vehicle: saline with Tween-80 94 % of control

O=C1NC2(C(=O)O1)C1CC3CC(C1)CC2C3 (stereo unspecified)
inactive: endpoint: mean survival time, dose: 12.5 mg/kg/injection, schedule: Q01DX009 (ip), vehicle: saline 108 % of control | [4] 107 % of control | endpoint: mean survival time, dose: 50.0 mg/kg/injection, schedule: Q01DX009 (ip), vehicle: saline 105 % of control | endpoint: mean survival time, dose: 100.0 mg/kg/injection, schedule: Q04DX003 (ip), vehicle: alcohol 100 % of control | endpoint: mean survival time, dose: 200.0 mg/kg/injection, schedule: Q04DX003 (ip), vehicle: alcohol 90 % of control | endpoint: mean survival time, dose: 400.0 mg/kg/injection, schedule: Q04DX003 (ip), vehicle: alcohol 100 % of control

CCOC(=O)C1CCC(=O)N1C(=O)c1cc([N+](=O)[O-])cc([N+](=O)[O-])c1 (stereo unspecified)
inactive: [1] 97 % of control | [2] 92 % of control | [3] 94 % of control
